Patent US3943123A, “Novel beta-lactams and novel process” (Koninklijke Nederlandsche Gist-En Spiritusfabriek N.V., priority 1974, dated 1976)
Values after ≈ are worked out from the molar mass of the structure shown.

Columns and labels:
[1] = solubility in various organic solvents; assay type: physicochemical; conditions: cis isomer, in words
test organisms = experiment: anti-bacterial activity as determined by standard tests; assay type: cell-based; conditions: in words
Source text: Many of the β-lactams described here have anti-bacterial activity as determined by standards tests. […] The novel β-lactams of the invention are also useful intermediates for the preparation of complex substituted amino acids which can then be polymerized to form polymers. The amino acids are formed by 1,2-cleavage of the β-lactams with an alkali metal hydroxide or alkoxide such as sodium methoxide in a lower alkanol such as methanol to form the corresponding alkali metal salt of the resulting 3-aminopropionic acid which can be acidified to form the corresponding free amino acid.
(§1) A stock solution of the test compounds at a concentration of […] in 0.05 molar phosphate buffer solution at a pH of 6.5 was prepared and two-fold dilutions were made with sterile buffer. 1 cc quantities of each dilution were then incorporated into 19 cc of brain heart infusion agar in sterile petri dishes. The hardened surface was then inoculated with the test organisms and it was then incubated for 18 hours at 37°C. The minimum inhibitory concentration (MIC) which is the least amount of compound completely inhibiting the test organism is determined in mg/cc.

[2] = tested on: Staphylococcus Aureus A 321; experiment: MIC by two-fold agar dilution (brain heart infusion agar), Staphylococcus aureus A 321; assay type: cell-based; conditions: strain A 321, 18 hours at 37°C, pH 6.5 buffer, read-out: minimum inhibitory concentration (MIC)
Experimental: as §1

[3] = tested on: Staphylococcus Aureus A 355; experiment: MIC by two-fold agar dilution (brain heart infusion agar), Staphylococcus aureus A 355; assay type: cell-based; conditions: strain A 355, 18 hours at 37°C, pH 6.5 buffer, read-out: minimum inhibitory concentration (MIC)
Experimental: as §1

[4] = tested on: Staphylococcus Aureus 2160'; experiment: MIC by two-fold agar dilution (brain heart infusion agar), Staphylococcus aureus 2160'; assay type: cell-based; conditions: strain 2160', 18 hours at 37°C, pH 6.5 buffer, read-out: minimum inhibitory concentration (MIC)
Experimental: as §1

[5] = tested on: Bacillus Subtilis ATCC 6633; experiment: MIC by two-fold agar dilution (brain heart infusion agar), Bacillus subtilis; assay type: cell-based; conditions: ATCC6633, 18 hours at 37°C, pH 6.5 buffer, read-out: minimum inhibitory concentration (MIC)
Experimental: as §1

Row | Compound | solubility in various organic solvents [1] | antibacterial activity (test organisms) | MIC [2] [mg/mL] | MIC [3] [mg/mL] | MIC [4] [mg/mL] | MIC [5] [mg/mL]
1 | O=C(O)c1ccc(N2C(=O)[C@@H](Oc3ccccc3)[C@H]2c2ccccc2O)cc1 (relative stereo) [cis-1-(p-carboxyphenyl)-3-phenoxy-4-(o-hydroxyphenyl)azetidin-2-one] | low solubility in various organic solvents |  |  |  |  | 
2 | COc1ccc(C2C(Oc3ccccc3)C(=O)N2c2ccc(C(=O)O)cc2)cc1 (stereo not drawn) [1-(p-carboxyphenyl)-3-phenoxy-4-(p-methoxyphenyl)-azetidin-2-one] |  | outstanding for their antibacterial activity |  |  |  | 
3 | COc1ccc(N2C(=O)C(Oc3ccccc3)C2c2ccc(C(=O)O)cc2)cc1 (stereo not drawn) [1-(p-methoxyphenyl)-3-phenoxy-4-(p-carboxyphenyl)-azetidin-2-one] |  | outstanding for their antibacterial activity | 100 (≈ 257 mM) | 100 (≈ 257 mM) | 100 (≈ 257 mM) | 100 (≈ 257 mM)
4 | O=C(O)c1ccc(N2C(=O)C(Oc3ccccc3)C2c2ccco2)cc1 (stereo not drawn) [1-p-carboxyphenyl-3-phenoxy-4-α-furyl-azetidin-2-one] |  | outstanding for their antibacterial activity |  |  |  | 50 (≈ 143 mM)
